Data reported in ChEMBL document CHEMBL1255266, “Mechanisms of resistance to daptomycin in Enterococcus faecium” (2008).
Converted amounts (≈) assume the structure as drawn.

What was measured:
Enterococcus faecium [1] = assay: Antimicrobial activity against Enterococcus faecium isolate 6 from thigh wound of patient by Etest; format: functional; details: isolate 6, Thigh muscle
Enterococcus faecium [2] = assay: Antimicrobial activity against Enterococcus faecium isolate 3 from abdominal wound of patient by Etest; format: functional
Enterococcus faecium [3] = assay: Antimicrobial activity against Enterococcus faecium isolate 5 from patient blood by Etest; format: functional
Enterococcus faecium [4] = assay: Antimicrobial activity against Enterococcus faecium isolate 7 from abdominal wound of patient by Etest
Enterococcus faecium [5] = assay: Antimicrobial activity against Enterococcus faecium isolate 2 from skin lesion of patient by Etest; format: functional
Enterococcus faecium [6] = assay: Antimicrobial activity against Enterococcus faecium isolate 8 from right abdominal wound of patient by Etest
Enterococcus faecium [7] = assay: Antimicrobial activity against Enterococcus faecium isolate 4 from lower extremity wound of patient by Etest; format: functional
Enterococcus faecium [8] = assay: Antimicrobial activity against Enterococcus faecium isolate 1 from right groin wound of patient by Etest; format: functional
Staphylococcus aureus = assay: microbe, parasite or virus in culture; details: ATCC 29213
Description: Antimicrobial activity against Staphylococcus aureus ATCC 29213 by Etest

Enterococcus faecium [9] = assay: Antimicrobial activity against Enterococcus faecium ATCC 35667 by Etest; format: functional

| SMILES | MIC (Enterococcus faecium [1]) | MIC (Enterococcus faecium [2]) | MIC (Enterococcus faecium [3]) | MIC (Enterococcus faecium [4]) | MIC (Enterococcus faecium [5]) | MIC (Enterococcus faecium [6]) | MIC (Enterococcus faecium [7]) | MIC (Enterococcus faecium [8]) | MIC (Staphylococcus aureus) | MIC (Enterococcus faecium [9]) |
| --- | --- | --- | --- | --- | --- | --- | --- | --- | --- | --- |
| CN[C@H](CC(C)C)C(=O)N[C@H]1C(=O)N[C@@H](CC(N)=O)C(=O)N[C@H]2C(=O)N[C@H]3C(=O)N[C@H](C(=O)N[C@H](C(=O)O)c4cc(O)cc(O)c4-c4cc3ccc4O)[C@H](O)c3ccc(c(Cl)c3)Oc3cc2cc(c3O[C@@H]2O[C@H](CO)[C@@H](O)[C@H](O)[C@H]2O[C@H]2C[C@](C)(N)[C@H](O)[C@H](C)O2)Oc2ccc(cc2Cl)[C@H]1O [VANCOMYCIN] | > 16 µg/mL | < 2 µg/mL | > 16 µg/mL | > 16 µg/mL | < 2 µg/mL | > 16 µg/mL | > 16 µg/mL | < 2 µg/mL |  |  |
| CCCCCCCCCC(=O)N[C@@H](Cc1c[nH]c2ccccc12)C(=O)N[C@H](CC(N)=O)C(=O)N[C@@H](CC(=O)O)C(=O)N[C@@H]1C(=O)NCC(=O)N[C@@H](CCCN)C(=O)N[C@@H](CC(=O)O)C(=O)N[C@H](C)C(=O)N[C@@H](CC(=O)O)C(=O)NCC(=O)N[C@H](CO)C(=O)N[C@@H]([C@H](C)CC(=O)O)C(=O)N[C@@H](CC(=O)c2ccccc2N)C(=O)O[C@@H]1C | 16 µg/mL (≈ 9.87 µM) | 16 µg/mL (≈ 9.87 µM) | 8 µg/mL (≈ 4.94 µM) | > 16 µg/mL | 4 µg/mL (≈ 2.47 µM) | 16 µg/mL (≈ 9.87 µM) | 16 µg/mL (≈ 9.87 µM) | 4 µg/mL (≈ 2.47 µM) | 0.25 µg/mL (≈ 0.154 µM) | 1 µg/mL (≈ 0.617 µM) |
